{"source": "patent US20220152093A1", "about": "“OPTIMIZED NUTRIENT SALT COMPOSITION” (priority 2018, published 2022)", "system": "tender mangoes", "experiment": "Preservation of tender mangoes in salt solution, 45 days at room temperature", "details": "common salt solution 2.5%, optimized nutrient salt solution 5% (matching saltiness), 25 to 35 degree centigrade", "text": "Two sets of 1000 gm tender mangoes were put in two separate sterile glass bottles. First bottle was filled with common salt solution up to the neck of the bottle and the second bottle was filled with optimized nutrient salt solution prepared by a process as given in example 1 of matching saltiness. Saltiness of optimized nutrient salt is only half of common salt. While the common salt solution used was 2.5% and the optimized nutrient salt solution was 5%. Bottle closed with cap and kept for seasoning for 45 days in room temperature around 25 to 35 degree centigrade.", "data": [{"compound": "[Cl-].[Na+]", "note": "[common salt]", "values": [{"measurement": "fungal growth at the surface of the solution", "result": "thin layer of fungal growth"}]}]}
